Key:
[1] = Human serum hydrolysis studies of drug esters; assay type: in vitro ADME; settings: 37° C., read-out: t1/2 for hydrolysis
Description: Human serum (2.34 mL) is placed in a test tube. To the serum is added 260 μL of a 10 mM solution of drug ester in acetonitrile. The tube is placed in a 37° C. incubator, and at various time points a 500 μL aliquot is removed. The aliquot is mixed with 500 μL methanol, and the mixture is vortex mixed and centrifuged. A sample of the supernatant is analyzed by HPLC obtain the ratio of drug ester to drug acid or drug alcohol. An Arrhenius plot of the data provides a t1/2 for hydrolysis.

[2] = Volatilization from halogen bulb; purity of the aerosol by reverse-phase HPLC; assay type: physicochemical; settings: thermal vapor from coated aluminum foil on 300 watt halogen tube, 60 V 5-12 s or 90 V 2.5-3.5 s; HPLC at 225 nm
Description: A solution of drug in approximately 120 μL dichloromethane is coated on a 3.5 cm×7.5 cm piece of aluminum foil (precleaned with acetone). The dichloromethane is allowed to evaporate. The coated foil is wrapped around a 300 watt halogen tube (Feit Electric Company, Pico Rivera, Calif.), which is inserted into a glass tube sealed at one end with a rubber stopper. Running 60 V of alternating current (driven by line power controlled by a variac) through the bulb for 5-12 s or 90 V for 2.5-3.5 s affords thermal vapor (including aerosol), which is collected on the glass tube walls. (When desired, the system is flushed through with argon prior to volatilization.) Reverse-phase HPLC analysis with detection by absorption of 225 nm light is used to determine the purity of the aerosol.
Table 1, which follows, provides data from drugs volatilized using the above-recited general procedure.

[3] = Hydrolysis studies of drug esters in PBS solution (pH 7.5); assay type: physicochemical; settings: PBS pH 7.5, room temperature, read-out: t1/2 for hydrolysis
Description: Drug ester (20 μL, 10 mM acetonitrile) is added to 1 mL PBS solution (pH 7.5) at room temperature. At intermittent time points, an aliquot of the resulting mixture is injected into an HPLC to obtain the ratio of drug ester to drug acid or drug alcohol. An Arrhenius plot of the data provides a t1/2 for hydrolysis.

| Molecule | half-life at 1 mM [1] | AEROSOL PURITY [2] | half-life at 0.196 mM [3] |
| --- | --- | --- | --- |
| CCOC(=O)C(C)c1cccc(C(=O)c2ccccc2)c1 (stereo not drawn) [Ketoprofen Ethyl Ester] | 3.73 h | 99.65% | > 48 h |
| COC(=O)C(C)c1cccc(C(=O)c2ccccc2)c1 (stereo not drawn) [Ketoprofen Methyl Ester] | 2.4 h | 99% | > 48 h |
| Apomorphine Diacetate |  | 96.9% |  |
| CC(=O)Oc1ccc2c(c1OC(C)=O)-c1cccc3c1C(C2)N(C)CC3.Cl (stereo not drawn) [Apomorphine Diacetate-HCl] |  | 94% |  |
| CCOC(=O)Cc1c(C)n(C(=O)c2ccc(Cl)cc2)c2ccc(OC)cc12 [Indomethacin Ethyl Ester] |  | >99% |  |
| COC(=O)Cc1c(C)n(C(=O)c2ccc(Cl)cc2)c2ccc(OC)cc12 [Indomethacin Methyl Ester] |  | 99% |  |
| CCOC(=O)C1CCn2c(C(=O)c3ccccc3)ccc21 (stereo not drawn) [Ketorolac Ethyl Ester] |  | >99% |  |
| CC(C(=O)OCCN(C)C)c1cccc(C(=O)c2ccccc2)c1 (stereo not drawn) [Ketoprofen Norcholine Ester] |  | 100% |  |
| COC(=O)C1CCn2c(C(=O)c3ccccc3)ccc21 (stereo not drawn) [Ketorolac Methyl Ester] |  | 100% |  |
| CN(C)CCOC(=O)C1CCn2c(C(=O)c3ccccc3)ccc21 (stereo not drawn) [Ketorolac Norcholine Ester, 2-(N,N-Dimethylamino)Ethyl Ester of Ketorolac] |  | 100% |  |
| COc1ccc2c(c1)c(CC(=O)OCCN(C)C)c(C)n2C(=O)c1ccc(Cl)cc1 [Indomethacin Norcholine Ester] |  | 100% |  |
